Laboratory results: PubChem BioAssay AID588524 (Sanford-Burnham Center for Chemical Genomics, 2011)

The molecules below were run against Apoptotic protease-activating factor 1 (Homo sapiens) (UniProt O14727) (assay: Apaf-1 assay inhibition concentration curves – fluorescence, uHTS hits, dose response (AID 588524)). Settings: Apaf-1 apoptosome assay, fluorescence read-out.
Sequence of Apoptotic protease-activating factor 1 (Homo sapiens) (O14727 whole entry, looked up): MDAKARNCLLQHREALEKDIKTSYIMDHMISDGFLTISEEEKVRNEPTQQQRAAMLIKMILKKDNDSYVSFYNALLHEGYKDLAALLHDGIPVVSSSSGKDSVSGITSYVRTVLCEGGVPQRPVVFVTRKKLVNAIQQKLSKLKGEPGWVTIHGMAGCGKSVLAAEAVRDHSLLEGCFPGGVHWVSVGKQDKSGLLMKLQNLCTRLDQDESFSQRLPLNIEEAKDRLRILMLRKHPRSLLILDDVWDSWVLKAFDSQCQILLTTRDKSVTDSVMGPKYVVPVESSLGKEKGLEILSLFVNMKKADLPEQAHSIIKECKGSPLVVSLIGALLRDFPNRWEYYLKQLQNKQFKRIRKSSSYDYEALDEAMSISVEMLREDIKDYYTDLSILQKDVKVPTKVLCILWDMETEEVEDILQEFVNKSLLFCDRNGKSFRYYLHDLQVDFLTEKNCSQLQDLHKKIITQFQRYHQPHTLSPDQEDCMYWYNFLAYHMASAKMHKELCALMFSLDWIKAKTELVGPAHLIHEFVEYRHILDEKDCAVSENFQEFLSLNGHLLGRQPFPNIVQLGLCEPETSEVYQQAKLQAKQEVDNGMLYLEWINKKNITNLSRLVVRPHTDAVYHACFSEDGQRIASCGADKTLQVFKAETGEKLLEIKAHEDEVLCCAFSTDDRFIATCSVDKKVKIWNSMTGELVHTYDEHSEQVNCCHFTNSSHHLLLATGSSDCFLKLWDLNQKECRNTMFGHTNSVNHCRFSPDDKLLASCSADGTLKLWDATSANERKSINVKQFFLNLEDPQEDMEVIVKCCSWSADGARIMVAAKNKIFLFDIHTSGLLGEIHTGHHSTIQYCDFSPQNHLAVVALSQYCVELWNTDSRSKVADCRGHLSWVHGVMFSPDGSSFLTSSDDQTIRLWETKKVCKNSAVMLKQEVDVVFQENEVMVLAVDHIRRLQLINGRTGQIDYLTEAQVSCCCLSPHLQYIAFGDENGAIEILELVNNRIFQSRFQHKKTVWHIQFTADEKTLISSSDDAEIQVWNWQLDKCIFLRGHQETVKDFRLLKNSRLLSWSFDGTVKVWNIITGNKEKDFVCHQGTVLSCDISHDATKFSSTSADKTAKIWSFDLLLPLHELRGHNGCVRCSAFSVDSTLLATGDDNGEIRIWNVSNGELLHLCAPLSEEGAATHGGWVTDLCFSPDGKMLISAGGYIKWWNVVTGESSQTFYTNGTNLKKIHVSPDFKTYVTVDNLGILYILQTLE

| Compound | IC50 [µM] |
| --- | --- |
| C#CCOCCOCCOCCNc1nc(N2CCN(C(=O)CCCCCCCCCCNC(=O)[C@@H](CCSC)n3cc(CCO)nn3)CC2)nc(N2CCN(C(=O)CCCCCCCCCCNC(=O)[C@H](CO)n3cc(CCCCCN)nn3)CC2)n1 | 40 |
| CCCCCCCCCCCCCCCC[n+]1ccc(/C=N/O)cc1 | 29.3 |
| C#CCOCCOCCOCCNc1nc(N2CCN(C(=O)CCCCCCCCCCNC(=O)[C@H]([C@@H](C)CC)n3cc(CCCCN=C(N)N)nn3)CC2)nc(N2CCN(C(=O)CCCCCCCCCCNC(=O)[C@H](CCCCN)n3cc(C)nn3)CC2)n1 | 21.4 |
| CNc1ccc2nc3ccccc3[n+](C)c2c1 | 11.5 |
| C#CCOCCOCCOCCNc1nc(N2CCN(C(=O)CCCCCCCCCCNC(=O)[C@H](CO)n3cc(CCCSC)nn3)CC2)nc(N2CCN(C(=O)CCCCCCCCCCNC(=O)[C@H](CCCCN)n3cc(CCO)nn3)CC2)n1 | 36.3 |
| C#CCOCCOCCOCCNc1nc(N2CCN(C(=O)CCCCCCCCCCNC(=O)Cn3cc(CCCCCN)nn3)CC2)nc(N2CCN(C(=O)CCCCCCCCCCNC(=O)Cn3cc(CCCCCN)nn3)CC2)n1 | 34.9 |
| C#CCOCCOCCOCCNc1nc(N2CCN(C(=O)CCCCCCCCCCNC(=O)[C@H](CCCCN)n3cc(CCO)nn3)CC2)nc(N2CCN(C(=O)CCCCCCCCCCNC(=O)[C@H](CCCCN)n3cc(CCO)nn3)CC2)n1 | 27.1 |
| C#CCOCCOCCOCCNc1nc(N2CCN(C(=O)CCCCCCCCCCNC(=O)Cn3cc(CCCCCN)nn3)CC2)nc(N2CCN(C(=O)CCCCCCCCCCNC(=O)[C@H]([C@@H](C)CC)n3cc(CCCCCN)nn3)CC2)n1 | 24.3 |
| C[n+]1c(-c2ccccc2)c2cc(N)ccc2c2ccc(N)cc21 | 24.5 |
| C#CCOCCOCCOCCNc1nc(N2CCN(C(=O)CCCCCCCCCCNC(=O)Cn3cc(CCCCCN)nn3)CC2)nc(N2CCN(C(=O)CCCCCCCCCCNC(=O)[C@H]([C@@H](C)CC)n3cc(CCCCN=C(N)N)nn3)CC2)n1 | 12.9 |
| C#CCOCCOCCOCCNc1nc(N2CCN(C(=O)CCCCCCCCCCNC(=O)[C@H](CCCCN)n3cc(C)nn3)CC2)nc(N2CCN(C(=O)CCCCCCCCCCNC(=O)[C@H](CCCN=C(N)N)n3cc(C[C@@H](C)CC)nn3)CC2)n1 | 15.3 |
| C#CCOCCOCCOCCNc1nc(N2CCN(C(=O)CCCCCCCCCCNC(=O)Cn3cc(CCCCCN)nn3)CC2)nc(N2CCN(C(=O)CCCCCCCCCCNC(=O)[C@H](CO)n3cc(CCCSC)nn3)CC2)n1 | 24.6 |
